The text below walks through data of PMC6222450, “Computer-Aided Studies for Novel Arylhydantoin 1,3,5-Triazine Derivatives as 5-HT6 Serotonin Receptor Ligands with Antidepressive-Like, Anxiolytic and Antiobesity Action In Vivo” (Molecules : A Journal of Synthetic Chemistry and Natural …, 2018).

One may read the Ki as the dissociation constant of the complex between target and ligand, obtained from inhibition or displacement.

The structures appear in SMILES notation. “And” between values parts separate entries of the source, which are not always exact repeats. Equal values may be shown once.

The target in one series is T1, dopaminergic D2LR (Homo sapiens, UniProt P14416).
T1 construct: expressed in transfected cells; host or cells: HEK-293
Description: Radioligand binding assay, D2LR, [3H]-Raclopride. The conditions noted are these: human D2L receptor stably expressed in HEK-293 cells; read-out: Ki D2 [3H]-Raclopride.

The next series is described as follows: Lipophilicity by RP-TLC. The settings on record: RP-18 TLC, water/methanol, extrapolated to 100% water. In kind it is physicochemical. As for the experimental part:
For comparison, the active arylmethyl-triazine compounds previously found (1–3) were also examined. Stationary phase RP-18 and mixtures of water/methanol […] as a mobile phase were employed. RM values were calculated from the RF data obtained. […] The regression coefficients (r^2) determined for all compounds were higher than 0.95. On the basis of the linear relationship between RM values and the volume fraction of methanol, values of RM0 in the systems analyzed corresponding to 100% of water were obtained by extrapolation. RM0 values received for the compounds tested ranged from 3.14 to 4.49 (Figure 6).
The mobile phases were prepared by mixing the respective amounts of water and organic modifier (methanol) in a range from 40 to 90% (v/v) in 5% increments. TLC was performed on Silica gel 60RP-18 F254 plates (7 × 10 cm) plates (Merck, Darmstadt, Germany). Methanol was used to prepare the solutions of the substances. Solutions (10 µL) of the analyzed compounds were applied to the plates as 5 mm bands, 10 mm apart and 10 mm from the lower edge and sides of the plates, by using Linomat V applicator (Camag, Basel, Switzerland). The vertical chamber (Sigma–Aldrich, St. Louis, MI, USA), 20 × 10 × 18 cm in size, was saturated with mobile phase for 20 min. Development was carried out over 9 cm from the starting line at a temperature of 20 °C. Next, the plates were dried at room temperature, and the spots were observed under ultraviolet light at 254 nm and/or 366 nm (UV lamp, Camag, Basel, Switzerland). In each case, sharp and symmetric spots without a tendency for tailing were obtained. Each experiment was run in triplicate and mean RF (retardation factor) values were calculated.
Starting from the RF values, the RM parameters were computed as described in the formula:RM = log(1/RF − 1)
The linear correlations between the RM values of the substances and the concentration of methanol in mobile phases were calculated for each compound with the Soczewiński-Wachtmeister equation [22]:RM = RM0 + aC where C is the concentration of the organic modifier (in %) in the mobile phase, a is the slope, and RM0 is the […].

In another series the target is T2, 5-HT1A (Homo sapiens, UniProt P08908).
T2 construct: expressed in transfected cells; host or cells: HEK-293
T2 sequence (P08908 1-422): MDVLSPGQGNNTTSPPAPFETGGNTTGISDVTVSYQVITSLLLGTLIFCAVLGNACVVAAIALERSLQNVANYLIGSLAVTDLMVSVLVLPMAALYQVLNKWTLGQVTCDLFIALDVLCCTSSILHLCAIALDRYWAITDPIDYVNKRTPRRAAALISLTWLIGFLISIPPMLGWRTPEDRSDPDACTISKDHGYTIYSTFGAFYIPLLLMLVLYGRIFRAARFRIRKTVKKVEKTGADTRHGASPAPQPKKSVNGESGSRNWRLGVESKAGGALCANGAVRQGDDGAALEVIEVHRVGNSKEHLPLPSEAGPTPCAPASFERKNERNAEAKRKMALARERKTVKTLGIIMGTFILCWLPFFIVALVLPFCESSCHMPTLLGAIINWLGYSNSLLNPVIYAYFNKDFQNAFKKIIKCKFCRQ
The series is described as follows: Radioligand binding assay, 5-HT1A, [3H]-8-OH-DPAT. The settings on record: human receptor stably expressed in HEK-293 cells.

Another series deals with T3, human serotonin 5-HT6R (Homo sapiens, UniProt P50406).
T3 construct: expressed in transfected cells; host or cells: HEK-293
Description: Radioligand binding assay, 5-HT6R, [3H]-LSD displacement. The settings on record: for Ki: human receptor stably expressed in HEK-293 cells, mean of at least two independent experiments, read-out: Ki 5-HT6 [3H]-LSD. Here is the method: Five selective radioligands were employed (Table 1).
Radioligand binding assays were used to determine the affinity of the synthesized compounds for human serotonin 5-HT6R, which were stably expressed in HEK-293 cells. […] Each compound was tested in triplicate at 7 to 8 different concentrations (10^−11 to 10^−4 M). The inhibition constants (Ki) were calculated using the Cheng–Prusoff equation [40], and the results are expressed as the mean of at least two independent experiments.

In another series the target is T4, 5-HT7bR (Homo sapiens, UniProt P34969).
T4 construct: expressed in transfected cells; host or cells: HEK-293
Description: Radioligand binding assay, 5-HT7bR, [3H]-5-CT. The conditions noted are these: human 5-HT7b receptor stably expressed in HEK-293 cells; read-out: Ki 5-HT7 [3H]-5-CT.

The nature of series [1]: Body weight of non-obese rats fed only standard diet. In kind it is in vivo, rat. The conditions noted are these: rats consuming standard feed, 5 mg/kg b.w. i.p. Here is the method: Male Wistar rats (170–190 g) were housed in a pair in plastic cages in constant temperature facilities exposed to a light-dark cycle. Control group (standard diet + vehicle) received vehicle (1% Tween 80, intraperitoneally), while the test group (standard diet + 6 or standard diet + 26) was injected (intraperitoneally) with 6 or 26 at the dose of 5 mg/kg b.w. dissolved in 1% Tween 80 (1 mL/kg). Body weights were measured daily immediately prior to administration of drugs.

For the next series, the system named is HEK-293 cells. The series is described as follows: Toxicity in vitro, MTS test. Type of series: cell-based. The settings on record: 72 h. Here is the method:
The preliminary evaluation of the safety profile for the most promising 5-HT6R ligands 6 and 26 was performed in vitro with the HEK-293 eukaryotic cell line. The compounds examined were dissolved in culture growth media and incubated with cells for 72 h. Next, the MTS test was applied to determine the viability of the cells. […] The reference cytostatic drug doxorubicin (DX) at the very low concentration 1 μM was also cytotoxic.
The ATCC CRL 1573 HEK-293 cells were seeded in 96-well plates (NuncTM) at a concentration of 1 × 10^4 cells/well in 200 μL in Dulbecco’s Modified Eagle’s Medium (Gibco®) supplemented with 10% fetal bovine serum (Gibco®), and cultured at 37 °C in an atmosphere containing 5% of CO2 for 24 h to reach 60% confluence. The 10 mM stock solutions of 5-HT6R ligands 6 and 26 in DMSO were diluted into fresh growth medium and added into the microplates at the final concentrations 0.1 μM –100 μM. […] The cytostatic drug doxorubicin (Sigma-Aldrich) at the concentration 1 μM was used as a reference. After 72 h of incubation 20 μL of CellTiter 96® AQueous Non-Radioactive Cell Proliferation Assay (MTS) (Promega®) was added to each well and the cells were incubated under the same conditions for 2 h. The absorbance of the samples was measured using a microplate reader EnSpire (PerkinElmer, Waltham, MA, USA) at 490 nm. Statistical significance was analyzed by GraphPad Prism™ software v. 5.01 (GraphPad Software, La Jolla, CA, USA) using One-way ANOVA and Bonferroni’s Multiple Comparison Post Test.

Series [2] can be described thus: Body weight of non-obese rats fed palatable diet (model of excessive eating). In kind it is in vivo, rat. From the text: In order to determine the anorectic activity of 6 or 26, the model of excessive eating was used. Male Wistar rats (170–190 g) were housed in a pair in plastic cages in constant temperature facilities exposed to a light-dark cycle. Water and food were available ad libitum. Two groups of 6 rats were fed with diets consisting of milk chocolate with nuts, cheese, salted peanuts, and 7% condensed milk and also had access to standard feed (Labofeed B, Morawski Manufacturer Feed, Kcynia, Poland) and water ad libitum for 3 weeks. Palatable control group (palatable diet + vehicle) received vehicle (1% Tween 80, intraperitoneally), while palatable test group (palatable diet + 6 or palatable + 26) was injected (intraperitoneally) with 6 or 26 at the dose of 5 mg/kg b.w. dissolved in 1% Tween 80 (1 mL/kg). Body weights were measured daily, immediately prior to administration of drugs.
The palatable diet contained: 100 g peanuts—614 kcal; 100 mL condensed milk—131 kcal; 100 g milk chocolate—529 kcal; 100g cheese (Greek type)—270 kcal. The standard diet contained 100 g feed—280 kcal.

In the next series the target is T5, 5-HT2A (Homo sapiens, UniProt P28223).
T5 construct: expressed in transfected cells; host or cells: HEK-293
The series is described as follows: Radioligand binding assay, 5-HT2A, [3H]-Ketanserin. The settings on record: human receptor stably expressed in HEK-293 cells.

T4 sequence (P34969 1-432 limits assumed): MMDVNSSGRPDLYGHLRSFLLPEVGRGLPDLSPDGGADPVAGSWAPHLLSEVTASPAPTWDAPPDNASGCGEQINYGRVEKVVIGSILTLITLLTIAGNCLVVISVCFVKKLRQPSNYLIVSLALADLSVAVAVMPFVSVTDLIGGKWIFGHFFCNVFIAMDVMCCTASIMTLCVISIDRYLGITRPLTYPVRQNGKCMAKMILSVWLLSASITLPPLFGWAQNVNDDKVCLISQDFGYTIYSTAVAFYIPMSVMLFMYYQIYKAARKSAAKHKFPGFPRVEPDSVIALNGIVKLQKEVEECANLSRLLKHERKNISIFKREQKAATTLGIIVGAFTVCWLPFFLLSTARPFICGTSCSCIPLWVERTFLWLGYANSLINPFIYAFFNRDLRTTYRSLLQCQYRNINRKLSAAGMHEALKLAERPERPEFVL
T5 sequence (P28223 whole entry): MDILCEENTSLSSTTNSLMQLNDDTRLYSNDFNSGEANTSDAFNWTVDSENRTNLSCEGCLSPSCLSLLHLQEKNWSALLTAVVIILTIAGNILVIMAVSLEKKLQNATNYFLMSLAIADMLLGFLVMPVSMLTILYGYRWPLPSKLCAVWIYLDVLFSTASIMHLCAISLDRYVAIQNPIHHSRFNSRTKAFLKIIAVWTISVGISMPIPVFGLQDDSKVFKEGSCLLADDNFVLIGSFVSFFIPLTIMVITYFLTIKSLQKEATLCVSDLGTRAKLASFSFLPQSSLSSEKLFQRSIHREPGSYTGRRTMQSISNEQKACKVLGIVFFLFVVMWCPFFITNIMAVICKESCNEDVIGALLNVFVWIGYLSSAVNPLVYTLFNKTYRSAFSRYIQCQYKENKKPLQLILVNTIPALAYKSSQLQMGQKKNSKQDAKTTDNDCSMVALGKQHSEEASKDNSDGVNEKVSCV
T1 sequence (P14416 whole entry): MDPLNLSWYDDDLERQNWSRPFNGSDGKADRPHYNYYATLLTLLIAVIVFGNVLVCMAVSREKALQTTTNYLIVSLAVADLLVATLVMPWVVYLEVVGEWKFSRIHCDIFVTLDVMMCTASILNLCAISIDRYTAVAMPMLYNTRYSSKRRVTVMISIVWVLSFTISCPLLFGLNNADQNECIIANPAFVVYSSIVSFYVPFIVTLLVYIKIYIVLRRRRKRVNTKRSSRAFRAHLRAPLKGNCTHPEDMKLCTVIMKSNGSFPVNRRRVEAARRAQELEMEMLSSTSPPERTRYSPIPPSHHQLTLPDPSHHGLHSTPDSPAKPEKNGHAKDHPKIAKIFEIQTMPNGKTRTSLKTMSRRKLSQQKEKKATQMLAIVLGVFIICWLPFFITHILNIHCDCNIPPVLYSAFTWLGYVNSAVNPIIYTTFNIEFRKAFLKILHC
T3 sequence (P50406 whole entry): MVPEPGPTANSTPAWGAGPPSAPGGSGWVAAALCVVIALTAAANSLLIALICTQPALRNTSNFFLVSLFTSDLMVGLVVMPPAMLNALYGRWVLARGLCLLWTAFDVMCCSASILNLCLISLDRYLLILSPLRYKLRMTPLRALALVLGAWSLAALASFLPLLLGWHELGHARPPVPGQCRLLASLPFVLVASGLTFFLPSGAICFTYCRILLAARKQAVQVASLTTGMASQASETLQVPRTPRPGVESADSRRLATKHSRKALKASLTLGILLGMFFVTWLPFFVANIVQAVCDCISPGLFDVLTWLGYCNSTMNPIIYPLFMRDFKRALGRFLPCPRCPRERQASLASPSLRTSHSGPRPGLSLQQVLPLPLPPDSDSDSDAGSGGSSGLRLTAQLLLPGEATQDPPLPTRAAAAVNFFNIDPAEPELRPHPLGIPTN

On to `CN1CCN(c2nc(N)nc(CN3C(=O)N(Cc4ccc(Cl)cc4)C(=O)C3(C)C)n2)CC1` [Compound 5, 3-(4-Chlorobenzyl)-1-((4-amino-6-(4-methylpiperazin-1-yl)-1,3,5-triazin-2-yl)methyl)-5,5-dimethylimidazolidine-2,4-dione], for which the inhibition constant Ki was found to be 5.01 µM on dopaminergic D2LR, 15.4 µM on 5-HT1A, 4.28 µM at human serotonin 5-HT6R and 1.62 µM at 5-HT7bR. Also, the RM0 in the series “Lipophilicity by RP-TLC” is on record as 3.22.
With `CN1CCN(c2nc(N)nc(CN3C(=O)N(Cc4ccc(Cl)cc4)C(C)(C)C3=O)n2)CC1` [Compound 6, 1-(4-Chlorobenzyl)-3-((4-amino-6-(4-methylpiperazin-1-yl)-1,3,5-triazin-2-yl)methyl)-5,5-dimethylimidazolidine-2,4-dione], the Ki at dopaminergic D2LR was 4.1 µM; at 5-HT1A, 23.3 µM; on human serotonin 5-HT6R, < 0.2 µM and 0.127 µM; at 5-HT7bR, 3.71 µM. Also, the RM0 in the series “Lipophilicity by RP-TLC” is reported as 3.39. Besides, the “effect on body weight” value in [1] is on record as “No effects on body weight”. Also, the “toxicity in HEK-293 cells” value in the series with HEK-293 cells (0.1 μM–100 μM) was “low”. Moreover, in the series on HEK-293 cells (100 μM, *** p < 0.001), the “viability of HEK-293 cells” value was “statistically significant decrease of viability”. Further, the “day of experiment from which groups differed significantly” value in series [2] (rats fed palatable feed, 5 mg/kg b.w. i.p. daily) turned out to be 16 days. Also, the “weight gain vs control group” value in series [2] (rats fed palatable feed, 5 mg/kg b.w. i.p., 21 days) was “significantly less weight gain”. Moreover, the “body weight vs control animals fed standard feed” value in series [2] (treated rats with access to preferential feed, 5 mg/kg b.w. i.p.) is listed as “differed significantly”.
As for `CN1CCN(c2nc(N)nc(CN3C(=O)NC(C)(c4ccc(Cl)cc4)C3=O)n2)CC1` (stereo not shown) [Compound 7, 3-((4-Amino-6-(4-methylpiperazin-1-yl)-1,3,5-triazin-2-yl)methyl)-5-(4-chlorophenyl)-5-methylimidazolidine-2,4-dione], the inhibition constant (Ki) on dopaminergic D2LR was 31.2 µM; at 5-HT1A, 28.1 µM; on human serotonin 5-HT6R, < 0.2 µM and 0.176 µM; at 5-HT7bR, 0.938 µM. Moreover, the RM0 in the series “Lipophilicity by RP-TLC” was 3.51.
With `CN1CCN(c2nc(N)nc(CN3C(=O)NC(c4ccc(Cl)cc4)(c4ccc(Cl)cc4)C3=O)n2)CC1` [Compound 8, 3-((4-Amino-6-(4-methylpiperazin-1-yl)-1,3,5-triazin-2-yl)methyl)-5,5-bis(4-chlorophenyl)imidazolidine-2,4-dione], the inhibitory constant (Ki) at dopaminergic D2LR was found to be 6.85 µM; at 5-HT1A, 3.05 µM; at human serotonin 5-HT6R it was 1.06 µM; at 5-HT7bR, 0.594 µM. Besides, in “Lipophilicity by RP-TLC”, the RM0 is given as 4.46.
Regarding `CN1CCN(c2nc(N)nc(CN3C(=O)N(Cc4ccc5ccccc5c4)C(C)(C)C3=O)n2)CC1` [Compound 18], the Ki on dopaminergic D2LR is 0.888 µM; at 5-HT1A it was 5.72 µM; on human serotonin 5-HT6R, < 0.2 µM and 0.182 µM; at 5-HT7bR it was 1.53 µM; at 5-HT2A it was 1.91 µM. Besides, the RM0 in “Lipophilicity by RP-TLC” is on record as 4.04.
On to `CN1CCN(c2nc(N)nc(CN3C(=O)NC(C)(c4ccc(Cl)c(Cl)c4Cl)C3=O)n2)CC1` (stereo not shown) [Compound 23, 3-((4-Amino-6-(4-methylpiperazin-1-yl)-1,3,5-triazin-2-yl)methyl)-5-(2,3,4-trichlorophenyl)-5-methylimidazolidine-2,4-dione], for which the inhibitory constant (Ki) on dopaminergic D2LR is 4.74 µM; on 5-HT1A, 6.03 µM; at human serotonin 5-HT6R, < 0.2 µM and 0.195 µM; at 5-HT7bR, 8.9 µM; on 5-HT2A, 3.43 µM. Besides, in the series “Lipophilicity by RP-TLC”, the RM0 is 4.49.
For the molecule `CN1CCN(c2nc(N)nc(CN3C(=O)NC(C)(c4cccc5ccccc45)C3=O)n2)CC1` (stereo not shown) [Compound 25, 3-((4-Amino-6-(4-methylpiperazin-1-yl)-1,3,5-triazin-2-yl)methyl)-5-methyl-5-(naphthalen-1-yl)imidazolidine-2,4-dione], the inhibition constant (Ki) was 7.81 µM on dopaminergic D2LR; 7.15 µM at 5-HT1A; < 0.2 µM and 0.121 µM on human serotonin 5-HT6R; 3.37 µM on 5-HT7bR; 8.08 µM at 5-HT2A. Moreover, the RM0 in the series “Lipophilicity by RP-TLC” was 4.16. Moreover, the selectivity in words result at human serotonin 5-HT6R (5-HT6R vs competitive GPCRs tested) is “highly selective”.
Consider `COc1cccc2c1C(=O)c1c(O)c3c(c(O)c1C2=O)C[C@@](O)(C(=O)CO)C[C@@H]3O[C@H]1C[C@H](N)[C@H](O)[C@H](C)O1` [doxorubicin, reference compound], for which, in the series with HEK-293 cells (1 μM), the “viability of HEK-293 cells” value was “cytotoxic”.
